Legend:
[1] = test system: Lactiplantibacillus plantarum 1,5-anhydroglucitol-6-phosphate isomerase LpYbiW (Uniprot A0A807DR53), SEQ ID NO: 2; assay: Michaelis-Menten kinetics of LpYbiW, coupled with LpFsaA and EcGldA, NADH consumption at A340nm; assay type: biochemical; details: 100 nM activated LpYbiW, 20 mM Tris/HCl pH 7.5, 100 mM KCl, 5 µM LpFsaA, 5 µM EcGldA, 0.4 mM NADH, anaerobic glove box; substrate 1,5-anhydroglucitol-6-phosphate at varying concentrations
Description: Continuous-wave X-band EPR spectroscopy was used to characterize the LpYbiW glycyl radical. A reaction system (200 µL) containing 20 mM Tris/HCl, (pH 7.5), 100 mM KCl, 100 µM titanium(III) citrate, 1 mM SAM, 80 µM reconstituted LpYbiY, and 40 µM LpYbiW was incubated for 15 minutes at room temperature in a glove box. 10% glycerol was added, and a resulting mixture was loaded into an EPR tube (Wilmad Lab Glass, 734-LPV-7) with an outer diameter of 4 mm and a length of 8 inches. The tube was sealed with a rubber stopper, removed from the glove box, and frozen using liquid nitrogen before EPR analysis. The experimental spectrum of the glycyl radical was modeled using Bruker Xepr spin fitting to obtain g-values, hyperfine coupling constants, and line widths. Double integration of the simulated spectrum was used to measure the spin concentration. […]
The Michaelis-Menten kinetic parameters of LpYbiW were determined by coupling with LpFsaA and EcGldA. The reaction rate of LpYbiW was monitored by measuring NADH consumption at A340nm. The absorbance change of the reaction system at 340 nm was measured every 5 seconds using the cuvette mode of an ultra-micro UV-visible spectrophotometer (Nanophotometer) in a glove box (1 cm light path). […]

[2] = target: T1, Escherichia coli strain K12 1,5-anhydromannitol-6-phosphate isomerase EcPflD (Uniprot P32674), SEQ ID NO: 98 (Escherichia coli, UniProt P32674); assay: Michaelis-Menten kinetics of EcPflD, coupled with EcFsaB and EcGldA, decrease in A340nm; assay type: biochemical; details: 40 nM activated EcPflD, 20 mM Tris/HCl pH 7.5, 100 mM KCl, 2 µM EcFsaB, 2 µM EcGldA, 0.4 mM NADH, anaerobic glove box; substrate 1,5-AM-6P at various concentrations
T1 sequence (P32674 1-765): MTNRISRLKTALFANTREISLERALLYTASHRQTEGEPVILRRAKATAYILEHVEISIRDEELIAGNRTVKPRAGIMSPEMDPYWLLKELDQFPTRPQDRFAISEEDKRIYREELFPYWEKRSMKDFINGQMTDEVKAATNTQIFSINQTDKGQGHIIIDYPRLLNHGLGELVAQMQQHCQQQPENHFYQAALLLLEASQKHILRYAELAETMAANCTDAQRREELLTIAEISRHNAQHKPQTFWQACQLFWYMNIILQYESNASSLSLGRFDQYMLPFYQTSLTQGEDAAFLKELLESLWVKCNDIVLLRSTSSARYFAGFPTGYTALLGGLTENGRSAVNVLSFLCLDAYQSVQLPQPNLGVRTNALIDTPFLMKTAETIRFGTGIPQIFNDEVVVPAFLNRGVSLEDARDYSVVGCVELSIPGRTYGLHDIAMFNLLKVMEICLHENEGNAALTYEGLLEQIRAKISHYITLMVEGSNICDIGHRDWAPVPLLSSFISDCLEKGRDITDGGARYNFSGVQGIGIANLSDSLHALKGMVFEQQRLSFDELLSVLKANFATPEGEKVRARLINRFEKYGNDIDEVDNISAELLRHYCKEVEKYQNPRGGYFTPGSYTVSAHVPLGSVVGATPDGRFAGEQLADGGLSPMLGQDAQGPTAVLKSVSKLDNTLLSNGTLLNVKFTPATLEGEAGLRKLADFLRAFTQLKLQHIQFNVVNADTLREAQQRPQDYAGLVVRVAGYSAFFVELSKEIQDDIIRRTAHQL
Description: (§1) The EcPflD glycine radical was characterized using continuous-wave X-band electron paramagnetic resonance (EPR) spectroscopy. A reaction system (200 µL) containing 20 mM Tris/HCl, (pH 7.5), 100 mM KCl, 100 µM titanium(III) citrate, 1 mM SAM, 80 µM reconstituted EcPflC, and 40 µM EcPflD was incubated for 15 minutes at room temperature in a glove box. Glycerol (10%) was added, and a resulting mixture was transferred to an EPR tube with an outer diameter of 4 mm and a length of 8 inches (Wilmad Lab Glass, 734-LPV-7). The tube was sealed with a rubber stopper, removed from the glove box, and frozen in liquid nitrogen prior to EPR analysis. […]
(§2) A reaction mixture containing 20 mM Tris/HCl, (pH 7.5), 100 mM KCl, 10 mM 1,5-AM-6P, 40 nM activated EcPflD, 5 µM EcFsaB, 5 µM EcGldA, and 0.4 mM NADH was incubated in a 1 cm Eppendorf cuvette in a glove box at room temperature. Absorbance at 340 nm was monitored every 5 seconds using a cuvette mode of an ultra-micro UV-Vis spectrophotometer (Hangzhou Miu Instruments Co., Ltd.) inside the glove box. […]
(§3) The reaction system containing 20 mM Tris/HCl, (pH 7.5), 100 mM KCl, 40 nM activated EcPflD and 1,5-AM-6P with various substrate concentrations, 2 µM EcFsaB, 2 µM EcGldA, and 0.4 mM NADH was measured using a cuvette mode of an ultra-micro UV-Vis spectrophotometer (Hangzhou Miu Instruments Co., Ltd.) in a 1 cm Eppendorf cuvette inside a glove box. […]

[3] = substrate: O=P(O)(O)OC[C@H]1OC[C@@H](O)[C@@H](O)[C@@H]1O; assay: as above; assay type: biochemical, Escherichia coli strain K12; details: other: 40 nM activated EcPflD, 20 mM Tris/HCl pH 7.5, 100 mM KCl, 2 µM EcFsaB, 2 µM EcGldA, 0.4 mM NADH, anaerobic glove box, substrate 1,5-AM-6P at various concentrations
Description: as §1, §2, §3

## O=P(O)(O)OC[C@H]1OC[C@H](O)[C@@H](O)[C@@H]1O [1,5-AG-6P, 1,5-anhydroglucitol-6-phosphate]
[1]
  Km: 36.5 ± 6.66 mM
  kcat: 43.38 ± 2.96 s^-1/LpYbiW

## O=P(O)(O)OC[C@H]1OC[C@@H](O)[C@@H](O)[C@@H]1O [1,5-AM-6P, 1,5-anhydromannitol-6-phosphate]
[2]
  kcat: 33.47 ± 0.79 s^-1/EcPflD

B1: Escherichia coli strain K12 1,5-anhydromannitol-6-phosphate isomerase EcPflD (Uniprot P32674), SEQ ID NO: 98 (Escherichia coli K-12) (protein)
chain: MTNRISRLKTALFANTREISLERALLYTASHRQTEGEPVILRRAKATAYILEHVEISIRDEELIAGNRTVKPRAGIMSPEMDPYWLLKELDQFPTRPQDRFAISEEDKRIYREELFPYWEKRSMKDFINGQMTDEVKAATNTQIFSINQTDKGQGHIIIDYPRLLNHGLGELVAQMQQHCQQQPENHFYQAALLLLEASQKHILRYAELAETMAANCTDAQRREELLTIAEISRHNAQHKPQTFWQACQLFWYMNIILQYESNASSLSLGRFDQYMLPFYQTSLTQGEDAAFLKELLESLWVKCNDIVLLRSTSSARYFAGFPTGYTALLGGLTENGRSAVNVLSFLCLDAYQSVQLPQPNLGVRTNALIDTPFLMKTAETIRFGTGIPQIFNDEVVVPAFLNRGVSLEDARDYSVVGCVELSIPGRTYGLHDIAMFNLLKVMEICLHENEGNAALTYEGLLEQIRAKISHYITLMVEGSNICDIGHRDWAPVPLLSSFISDCLEKGRDITDGGARYNFSGVQGIGIANLSDSLHALKGMVFEQQRLSFDELLSVLKANFATPEGEKVRARLINRFEKYGNDIDEVDNISAELLRHYCKEVEKYQNPRGGYFTPGSYTVSAHVPLGSVVGATPDGRFAGEQLADGGLSPMLGQDAQGPTAVLKSVSKLDNTLLSNGTLLNVKFTPATLEGEAGLRKLADFLRAFTQLKLQHIQFNVVNADTLREAQQRPQDYAGLVVRVAGYSAFFVELSKEIQDDIIRRTAHQL
[3]
  Km: 1.33 ± 0.12 mM

— EP4818317A1, “POLYPEPTIDE FOR BIOSYNTHESIS OF 1,2-PROPANEDIOL AND USE THEREOF” (Tianjin University, priority 2023, dated 2025)
